# In ChEMBL document CHEMBL5331085 (Eur J Med Chem, 2023):
# Calls of active or inactive are those of the source. The rule behind the calls is not given here.
# Columns and labels:
# [1] = Hemolytic activity in sheep erythrocytes incubated for 1 hr by absorbance based analysis; format: toxicity, cell-based, Ovis aries, Erythrocyte; conditions: sheep erythrocytes
# Staphylococcus aureus [2] = test: Antimicrobial activity against methicillin-resistant Staphylococcus aureus incubated for 16 to 20 hrs by broth microdilution method; format: functional; conditions: time 16-20 hrs
# [3] = tested on: Stenotrophomonas maltophilia; test: Antimicrobial activity against Stenotrophomonas maltophilia ATCC 17808 incubated for 16 to 20 hrs by CLSI based broth dilution method; format: functional; conditions: Stenotrophomonas maltophilia, ATCC 17808; time 16-20 hrs; read-out: MIC
# Escherichia coli = test: Antimicrobial activity against Escherichia coli ATCC 25922 incubated for 16 to 20 hrs by CLSI based broth dilution method; format: functional; conditions: Escherichia coli, ATCC 25922; time 16-20 hrs; read-out: MIC
# Enterococcus faecium = test: Antimicrobial activity against Enterococcus faecium ATCC 29212 incubated for 16 to 20 hrs by CLSI based broth dilution method; format: functional; conditions: Enterococcus faecium, ATCC 29212, time 16-20 hrs; read-out: MIC
# Staphylococcus aureus [4] = test: Antimicrobial activity against Staphylococcus aureus ATCC 29213 incubated for 16 to 20 hrs by CLSI based broth dilution method; format: functional; conditions: Staphylococcus aureus, ATCC 29213; time 16-20 hrs; read-out: MIC
# Staphylococcus aureus [5] = test: Antimicrobial activity against methicillin-resistant Staphylococcus aureus incubated for 16 to 20 hrs by CLSI based broth dilution method; format: functional; conditions: time 16-20 hrs
# Staphylococcus aureus [6] = test: Bactericidal activity against Staphylococcus aureus ATCC 29213 incubated for 16 to 20 hrs in presence of 50% plasma by broth dilution method; format: functional, organism-based; conditions: time 16-20 hrs
# Staphylococcus aureus [7] = test: Bactericidal activity against Staphylococcus aureus ATCC 29213 assessed as remaining bacterial concentration at 8 ug/ml measured after 8 hrs; format: functional; conditions: dose 8 µg/ml
# Staphylococcus aureus [8] = test: Bactericidal activity against Staphylococcus aureus ATCC 29213 assessed as reduction in bacterial growth at 8 ug/ml measured upto 24 hrs; format: functional, organism-based; conditions: dose 8.0 µg/ml
# [9] = Induction of drug resistance in Staphylococcus aureus ATCC 29213 assessed as test compound MIC at sub-MIC measured after 20 days (reference value: 1 ug/ml); format: functional; conditions: ATCC 29213, 480 h, time 20 day
# Cell membrane [10] = test: Induction of membrane damage in Staphylococcus aureus ATCC 29213 assessed as shrunken bacterial cell surface at 8 ug/ml incubated for 6 hrs by scanning electron microscopic analysis; format: subcellular; conditions: dose 8.0 µg/ml
# Cell membrane [11] = test: Induction of membrane damage in Staphylococcus aureus ATCC 29213 assessed as sticky appearance of bacterial cells at 8 ug/ml incubated for 6 hrs by scanning electron microscopic analysis; format: subcellular; conditions: dose 8.0 µg/ml
# Cell membrane [12] = test: Induction of membrane damage in Staphylococcus aureus ATCC 29213 assessed as change in membrane shape at 8 ug/ml incubated for 6 hrs by scanning electron microscopic analysis; conditions: dose 8.0 µg/ml
# Cell membrane [13] = test: Induction of membrane damage in Staphylococcus aureus ATCC 29213 assessed as membrane collapse with flowing contents at 8 ug/ml incubated for 6 hrs by scanning electron microscopic analysis; format: subcellular; conditions: dose 8.0 µg/ml
# Cell membrane [14] = test: Induction of membrane disruption in Staphylococcus aureus ATCC 29213 assessed as increase in red fluorescence at 8 ug/ml incubated for 30 mins by DAPI/PI staining based confocal microscopic analysis; format: subcellular; conditions: dose 8.0 µg/ml
# Cell membrane [15] = test: Induction of membrane depolarization in Staphylococcus aureus ATCC 29213 assessed as increase in fluorescence intensity treated for 6 mins prior to compound addition and further measured for 20 mins by DiSC3-5 dye based fluorescence analysis; format: subcellular; conditions: dose 16-64 µg/ml
# Staphylococcus aureus [16] = test: Antibacterial activity against Staphylococcus aureus ATCC 29213 assessed as fold increase in MIC incubated for 18 hrs in presence of phosphatidylethanolamine at 64 ug/ml incubated for 18 hrs by checkerboard dilution assay relative to control; format: functional
# Staphylococcus aureus [17] = test: Antibacterial activity against Staphylococcus aureus ATCC 29213 assessed as fold increase in MIC incubated for 18 hrs in presence of phosphatidylglycerol incubated for 18 hrs by checkerboard dilution assay relative to control; format: functional
# Staphylococcus aureus [18] = test: Antibacterial activity against Staphylococcus aureus ATCC 29213 assessed as increase in MIC incubated for 18 hrs in presence of cardiolipin incubated for 18 hrs by checkerboard dilution assay; format: functional, organism-based
# Cell membrane [19] = test: Induction of membrane disruption in Staphylococcus aureus ATCC 29213 assessed as nucleic acid leakage at 16 ug/ml incubated for 2 hrs by ultra-fine fluorescence spectrophotometry analysis; conditions: dose 16.0 µg/ml
# Staphylococcus aureus [20] = test: Induction of ROS accumulation in Staphylococcus aureus ATCC 29213 at 1 ug/ml incubated for 30 mins by DCF-DA staining based fluorescence analysis; format: functional, organism-based; conditions: dose 1.0 µg/ml
# Staphylococcus aureus [21] = test: Induction of ROS accumulation in Staphylococcus aureus ATCC 29213 at 0.5 ug/ml incubated for 30 mins by DCF-DA staining based fluorescence analysis; format: functional, organism-based; conditions: dose 0.5 µg/ml
# Staphylococcus aureus [22] = test: Induction of ROS accumulation in Staphylococcus aureus ATCC 29213 at 1 ug/ml incubated for 30 mins in presence of N-acetyl-L-cysteine by DCF-DA staining based fluorescence analysis; format: functional, organism-based; conditions: dose 1.0 µg/ml
# Staphylococcus aureus [23] = test: Antibacterial activity against Staphylococcus aureus ATCC 29213 assessed as inhibition of bacterial growth at 1 ug/ml incubated for 16 to 18 hrs in presence of genomic DNA at 0.125 to 4 ug/ml by microplate reader analysis; format: functional, organism-based; conditions: dose 1.0 µg/ml, time 16-18 hrs
# [24] = Cytotoxicity against human BGC cells assessed as inhibition of cell growth incubated for 72 hrs by CCK-8 assay; format: toxicity, cell-based
# [25] = Cytotoxicity against HUVEC cells assessed as inhibition of cell growth incubated for 72 hrs by CCK-8 assay; format: toxicity, cell-based; conditions: human
# [26] = Cytotoxicity against human WPMY-1 cells assessed as inhibition of cell growth incubated for 72 hrs by CCK-8 assay; format: toxicity, cell-based
# Staphylococcus aureus [27] = test: Antimicrobial activity against methicillin-resistant Staphylococcus aureus infected in Kunming female mouse assessed as reduction in bacterial load in skin at 5 mg/kg/day administered at labeled position and measured after 24 hrs relative to control; format: functional; parameters: scale not given: the % may be the effect or the level left
# Staphylococcus aureus [28] = test: Antimicrobial activity against methicillin-resistant Staphylococcus aureus infected in Kunming female mouse assessed as reduction in bacterial load in skin at 10 mg/kg/day administered at labeled position and measured after 24 hrs relative to control; format: functional; parameters: scale not given: the % may be the effect or the level left
# Staphylococcus aureus [29] = test: Antimicrobial activity against methicillin-resistant Staphylococcus aureus infected in Kunming female mouse assessed as reduction in neutrophil levels in skin at 5 to 10 mg/kg/day administered at labeled position and measured after 24 hrs by H and E staining based analysis; format: functional, organism-based; conditions: dose 5-10 mg/kg/day
# Staphylococcus aureus [30] = test: Antimicrobial activity against methicillin-resistant Staphylococcus aureus infected in Kunming female mouse assessed as reduction in skin inflammation at 5 to 10 mg/kg/day administered at labeled position and measured after 24 hrs by H and E staining based analysis; format: functional, organism-based; conditions: dose 5-10 mg/kg/day
compound,measurement,setting,value
CCCCCCCC[N+](C)(C)CCCCCOc1ccc(OCCCCC[N+](C)(C)CCCCCCCC)cc1.[Br-].[Br-],HC50 at 1 h,[1],1210 µg/mL
same,MIC,Staphylococcus aureus [2],0.25 µg/mL
CCCCCC[N+](C)(C)CCCOc1cccc(-c2cccc(OCCC[N+](C)(C)CCCCCC)c2)c1.[Br-].[Br-],MIC,[3],16 µg/mL
same,MIC,Escherichia coli,16 µg/mL
same,MIC,Enterococcus faecium,8 µg/mL
same,MIC,Staphylococcus aureus [4],1 µg/mL
same,HC50 at 1 h,[1],905 µg/mL
same,MIC90,Staphylococcus aureus [5],1 µg/mL
same,Activity,Staphylococcus aureus [6],Active
same,Activity,Staphylococcus aureus [7],<1 10^2CFU/ml
same,Activity,Staphylococcus aureus [8],Active
same,MIC,[9],1 µg/mL
same,Activity,Cell membrane [10],Active
same,Activity,Cell membrane [11],Active
same,Activity,Cell membrane [12],Active
same,Activity,Cell membrane [13],Active
same,Activity,Cell membrane [14],Active
same,Activity,Cell membrane [15],Dose-Dependent Effect
same,fold change (FC),Staphylococcus aureus [16],2
same,fold change (FC),Staphylococcus aureus [17],16
same,Activity,Staphylococcus aureus [18],Active
same,Activity,Cell membrane [19],Active
same,Activity,Staphylococcus aureus [20],inactive
same,Activity,Staphylococcus aureus [21],Active
same,Activity,Staphylococcus aureus [22],inactive
same,Activity,Staphylococcus aureus [23],Active
same,IC50 at 72 h,[24],18.8 µg/mL
same,IC50 at 72 h,[25],24.6 µg/mL
same,IC50 at 72 h,[26],23.3 µg/mL
same,Activity,Staphylococcus aureus [27],99.67%
same,Activity,Staphylococcus aureus [28],99.93%
same,Activity,Staphylococcus aureus [29],Active
same,Activity,Staphylococcus aureus [30],Active
